Laboratory results from patent publication US20260317344A1, “EGFR INHIBITORS FOR TREATING DISEASE” (BLOSSOMHILL THERAPEUTICS, INC., priority 2023, published 2026).

Columns and labels:
[1] = molecular target: EGFR (L858R) (Homo sapiens, UniProt P00533, L858R); assay: HotSpot radiometric kinase assay, inhibition of EGFR L858R mutant; format: biochemical; details: 33P ATP, room temperature, 120 m
Summary of the method: (§1)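 Kinase/substrate pairs in 20 mM HEPES pH 7.5, 10 mM MgCl2, 1 mM EGTA, 0.02% Brij35, 0.02 mg/ml BSA, 0.1 mM Na3VO4, 2 mM DTT, 1% DMSO were preincubated ~20 min with compound. ATP plus 33P-ATP (10 µM final) was added for 120 min at room temperature, and P81 filter binding gave IC50 values.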

[2] = molecular target: EGFR (L858R/T790M) (Homo sapiens, UniProt P00533, L858R/T790M); assay: HotSpot radiometric kinase assay, inhibition of EGFR L858R/T790M mutant; format: biochemical; details: 33P ATP, room temperature, 120 m
Summary of the method: (§2)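 Kinase/substrate pairs in 20 mM HEPES pH 7.5, 10 mM MgCl2, 1 mM EGTA, 0.02% Brij35, 0.02 mg/ml BSA, 0.1 mM Na3VO4, 2 mM DTT, 1% DMSO, preincubated ~20 min with compound. Reaction started with ATP/33P-ATP ([…]), run 120 min at room temperature; phosphorylation read by P81 filter binding, IC50 from curve fits.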

[3] = molecular target: EGFR (L858R/T790M/C797S) (Homo sapiens, UniProt P00533, C797S/L858R/T790M); assay: HotSpot radiometric kinase assay, inhibition of EGFR L858R/T790M/C797S mutant; format: biochemical; details: 33P ATP, room temperature, 120 m
Summary of the method: as §2

[4] = molecular target: EGFR (D746-750) (Homo sapiens, UniProt P00533, DEL746-750); assay: HotSpot radiometric kinase assay, inhibition of EGFR 746-750 mutant; format: biochemical; details: 33P ATP, room temperature, 120 m
Summary of the method: as §2

[5] = molecular target: EGFR (D746-750/C797S) (Homo sapiens, UniProt P00533, C797S/DEL746-750); assay: HotSpot radiometric kinase assay, inhibition of EGFR 746-750/C797S mutant; format: biochemical; details: 33P ATP, room temperature, 120 m
Summary of the method: as §2

[6] = molecular target: EGFR (D770_N771insNPG) (Homo sapiens, UniProt P00533, INS770NPG); assay: HotSpot radiometric kinase assay, inhibition of EGFR (D770_N771insNPG) mutant; format: biochemical; details: 33P ATP, room temperature, 120 m
Summary of the method: as §2

[7] = molecular target: EGFR WT (Homo sapiens, UniProt P00533); assay: HotSpot radiometric kinase assay, inhibition of EGFR WT; format: biochemical; details: 33P ATP, room temperature, 120 m
Summary of the method: as §1

[8] = molecular target: T1, pEGFR, PC-9 cells (d746-750 EGFR) (Homo sapiens, UniProt P00533, DEL746-750); assay: Cellular EGFR phosphorylation assay (LANCE Ultra TR-FRET) in PC-9 cells; format: cell-based; details: 4 hours at 37° C., read-out: PC-9 pEGFR IC50
T1 construct: pEGFR (Tyr1068) TR-FRET
Summary of the method: (§3)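 Measured in intact cells exposed to compound for 4 hours, with A431 given EGF at 40 ng/mL for the closing 10 minutes; a TR-FRET antibody pair quantified phospho-Tyr1068 EGFR in lysates (4-6 h detection at room temperature), giving IC50.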

[9] = molecular target: T2, pEGFR, NCI-H1975 cells (L858R/T790M EGFR) (Homo sapiens, UniProt P00533, L858R/T790M); assay: Cellular EGFR phosphorylation assay (LANCE Ultra TR-FRET) in NCI-H1975 cells; format: cell-based; details: 4 hours at 37° C., read-out: H1975 pEGFR IC50
T2 construct: pEGFR (Tyr1068) TR-FRET
Summary of the method: as §3

[10] = molecular target: T3, pEGFR, A431 cells (wildtype EGFR) (Homo sapiens, UniProt P00533); assay: Cellular EGFR phosphorylation assay (LANCE Ultra TR-FRET) in A431 cells; format: cell-based; details: 4 hours at 37° C., 40 ng/mL EGF for the final 10 minutes, read-out: A431 pEGFR IC50
T3 construct: pEGFR (Tyr1068) TR-FRET
Summary of the method: as §3

[11] = test system: PC-9 cells; assay: 5-Day CellTiter Glo (CTG) cell proliferation assay, PC-9; format: cell-based; details: Homo sapiens; PC-9 cells (d746-750 EGFR), 5-day CTG proliferation, 120 hours; read-out: PC-9 IC50
Summary of the method: (§4)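 Luminescent ATP signal (CellTiter-Glo 2.0) after 120 hours of compound exposure gave IC50 values. PC-9 and HCC827 harbour EGFR d746-750; NCI-H1975 harbours L858R/T790M.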

[12] = test system: NCI-H1975 cells; assay: 5-Day CellTiter Glo (CTG) cell proliferation assay, NCI-H1975; format: cell-based; details: Homo sapiens; NCI-H1975 cells (L858R/T790M EGFR), 5-day CTG proliferation, 120 hours; read-out: H1975 IC50
Summary of the method: as §4

[13] = test system: HCC827 cells; assay: 5-Day CellTiter Glo (CTG) cell proliferation assay, HCC827; format: cell-based; details: Homo sapiens; HCC827 cells (d746-750 EGFR), 5-day CTG proliferation, 120 hours; read-out: HCC827 IC50
Summary of the method: as §4

[14] = test system: BaF3 cells with engineered EGFR L858R/T790M/C797S; assay: 3-Day CellTiter Glo (CTG) cell proliferation assay, BaF3 EGFR L858R/T790M/C797S; format: cell-based; details: Mus musculus, 3-day CTG proliferation, 72 hours
Summary of the method: (§5)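 Growth inhibition in transgene-bearing BaF3 lines was scored after three days of compound treatment by CellTiter-Glo 2.0 ATP luminescence, yielding IC50 values.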

[15] = test system: BaF3 cells with engineered EGFR L858R/C797S; assay: 3-Day CellTiter Glo (CTG) cell proliferation assay, BaF3 EGFR L858R/C797S; format: cell-based; details: Mus musculus, 3-day CTG proliferation, 72 hours
Summary of the method: as §5

[16] = test system: BaF3 cells with engineered EGFR d746-750/T790M; assay: 3-Day CellTiter Glo (CTG) cell proliferation assay, BaF3 EGFR d746-750/T790M; format: cell-based; details: Mus musculus; BaF3 EGFR d746-750/T790M cells, 3-day CTG proliferation, 72 hours
Summary of the method: as §5

Chain of EGFR WT (P00533 25-1210): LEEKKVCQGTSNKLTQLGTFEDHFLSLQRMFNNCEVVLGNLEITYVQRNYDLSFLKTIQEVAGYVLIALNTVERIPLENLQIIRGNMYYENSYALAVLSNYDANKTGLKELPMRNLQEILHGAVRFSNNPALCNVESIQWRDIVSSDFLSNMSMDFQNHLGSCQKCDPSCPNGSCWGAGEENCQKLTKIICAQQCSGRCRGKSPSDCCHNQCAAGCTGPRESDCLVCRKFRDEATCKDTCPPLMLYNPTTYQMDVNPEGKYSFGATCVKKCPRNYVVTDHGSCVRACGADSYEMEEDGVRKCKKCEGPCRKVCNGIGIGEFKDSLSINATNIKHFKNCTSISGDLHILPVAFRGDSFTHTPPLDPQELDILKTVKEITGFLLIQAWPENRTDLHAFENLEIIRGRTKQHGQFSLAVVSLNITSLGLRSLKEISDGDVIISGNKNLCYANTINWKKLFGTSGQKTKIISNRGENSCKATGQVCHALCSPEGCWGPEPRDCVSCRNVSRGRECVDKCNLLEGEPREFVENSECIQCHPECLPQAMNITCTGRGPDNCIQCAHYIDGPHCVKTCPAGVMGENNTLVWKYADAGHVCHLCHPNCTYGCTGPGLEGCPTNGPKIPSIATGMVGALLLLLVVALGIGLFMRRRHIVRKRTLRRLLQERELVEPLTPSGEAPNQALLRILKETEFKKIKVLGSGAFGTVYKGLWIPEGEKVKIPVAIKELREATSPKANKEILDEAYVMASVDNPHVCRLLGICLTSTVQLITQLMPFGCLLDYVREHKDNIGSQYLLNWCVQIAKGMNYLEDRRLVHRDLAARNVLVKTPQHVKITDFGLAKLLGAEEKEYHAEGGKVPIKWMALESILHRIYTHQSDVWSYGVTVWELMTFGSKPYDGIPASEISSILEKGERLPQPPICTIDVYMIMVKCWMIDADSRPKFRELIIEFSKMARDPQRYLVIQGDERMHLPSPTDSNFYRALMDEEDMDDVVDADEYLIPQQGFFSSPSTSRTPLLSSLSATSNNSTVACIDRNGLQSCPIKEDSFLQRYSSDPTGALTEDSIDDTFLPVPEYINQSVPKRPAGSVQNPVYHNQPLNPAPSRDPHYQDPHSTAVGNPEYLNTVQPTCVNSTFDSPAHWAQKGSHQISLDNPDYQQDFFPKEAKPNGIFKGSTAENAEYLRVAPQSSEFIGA
T3 sequence (P00533 25-1210): as above
T2 sequence (P00533 25-1210 T790M/L858R): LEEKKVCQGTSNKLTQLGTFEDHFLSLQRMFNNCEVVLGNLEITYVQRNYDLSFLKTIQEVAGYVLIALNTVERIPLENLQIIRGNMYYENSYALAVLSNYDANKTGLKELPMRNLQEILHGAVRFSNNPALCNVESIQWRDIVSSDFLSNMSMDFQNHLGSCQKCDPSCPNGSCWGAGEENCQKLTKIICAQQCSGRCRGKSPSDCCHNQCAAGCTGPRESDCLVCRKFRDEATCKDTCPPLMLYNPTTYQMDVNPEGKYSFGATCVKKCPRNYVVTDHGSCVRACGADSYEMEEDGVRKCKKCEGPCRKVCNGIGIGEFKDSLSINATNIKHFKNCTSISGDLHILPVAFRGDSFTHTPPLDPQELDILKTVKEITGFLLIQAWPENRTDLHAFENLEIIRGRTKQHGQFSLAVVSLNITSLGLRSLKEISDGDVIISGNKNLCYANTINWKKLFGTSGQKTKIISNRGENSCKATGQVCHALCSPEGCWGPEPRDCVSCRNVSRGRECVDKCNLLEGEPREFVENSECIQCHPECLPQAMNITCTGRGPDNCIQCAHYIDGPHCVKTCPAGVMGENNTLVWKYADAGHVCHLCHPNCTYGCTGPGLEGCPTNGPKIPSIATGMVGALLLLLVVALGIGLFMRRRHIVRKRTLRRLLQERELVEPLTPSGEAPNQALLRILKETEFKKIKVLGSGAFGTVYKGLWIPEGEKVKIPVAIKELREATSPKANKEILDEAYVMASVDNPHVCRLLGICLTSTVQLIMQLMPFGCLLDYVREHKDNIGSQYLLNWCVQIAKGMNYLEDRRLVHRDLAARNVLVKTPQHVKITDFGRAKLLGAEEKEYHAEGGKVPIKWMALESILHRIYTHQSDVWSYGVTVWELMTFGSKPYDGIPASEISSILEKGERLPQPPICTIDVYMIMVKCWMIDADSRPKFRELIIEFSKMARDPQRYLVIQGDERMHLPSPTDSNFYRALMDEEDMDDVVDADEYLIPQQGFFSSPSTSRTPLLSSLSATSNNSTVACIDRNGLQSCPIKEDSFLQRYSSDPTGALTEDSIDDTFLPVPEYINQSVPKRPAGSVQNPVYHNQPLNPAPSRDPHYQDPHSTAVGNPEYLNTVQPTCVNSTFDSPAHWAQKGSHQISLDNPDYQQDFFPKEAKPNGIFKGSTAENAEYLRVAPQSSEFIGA
Chain of EGFR (L858R/T790M) (P00533 25-1210 T790M/L858R): as above

| Compound | IC50 [1] [nM] | IC50 [2] [nM] | IC50 [3] [nM] | IC50 [4] [nM] | IC50 [5] [nM] | IC50 [6] [nM] | IC50 [7] [nM] | IC50 [8] [nM] | IC50 [9] [nM] | IC50 [10] [nM] | IC50 [11] [nM] | IC50 [12] [nM] | IC50 [13] [nM] | IC50 [14] [nM] | IC50 [15] [nM] | IC50 [16] [nM] |
| --- | --- | --- | --- | --- | --- | --- | --- | --- | --- | --- | --- | --- | --- | --- | --- | --- |
| CCOc1nn(CCO)c2c1/C=C/c1n[nH]c3cnc(cc13)-c1c(C)nn(C)c1O[C@H](C)CN(CC)C2 [Ex. 17, 2-[(10R,17E)-16-ethoxy-12-ethyl-6,8,10-trimethyl-2,8,10,11,12,13-hexahydro-14H-5,3-(azenometheno)tripyrazolo[3,4-f:3′,4′-j:4″,3″-n][1,4]oxazacyclopentadecin-14-yl]ethan-1-ol] | 0.52 | 0.97 | 2.37 | 0.31 | 1 | 0.59 | 0.36 | 1.85 | 2.63 | 14.3 | 2.01 | 17.5 | 0.37 | 1.14 | 0.22 | 0.34 |
| Cc1nn(C)c2c1-c1cc3c(n[nH]c3cn1)/C=C/c1c(OCC#N)nn(CCO)c1CN(C)C[C@H](C)O2 [Ex. 22, {[(10S,17E)-14-(2-hydroxyethyl)-6,8,10,12-tetramethyl-2,10,11,12,13,14-hexahydro-8H-5,3-(azenometheno)tripyrazolo[3,4-f:3′,4′-j:4″,3″-n][1,4]oxazacyclopentadecin-16-yl]oxy}acetonitrile] | 1.45 | 0.73 | 0.52 | 0.3 | 1.27 | 0.28 | 0.41 | 5.67 | 6.81 | 67.5 | 7.12 | 19.8 | 0.87 | 4.39 | 0.56 | 5.77 |

More lines, in order of falling IC50 [1], values ahead:

| IC50 [1] [nM] | IC50 [2] [nM] | IC50 [3] [nM] | IC50 [4] [nM] | IC50 [5] [nM] | IC50 [6] [nM] | IC50 [7] [nM] | IC50 [8] [nM] | IC50 [9] [nM] | IC50 [10] [nM] | IC50 [11] [nM] | IC50 [12] [nM] | IC50 [13] [nM] | IC50 [14] [nM] | IC50 [15] [nM] | IC50 [16] [nM] | Compound |
| --- | --- | --- | --- | --- | --- | --- | --- | --- | --- | --- | --- | --- | --- | --- | --- | --- |
| 1.99 | 0.46 | 0.41 | 0.37 | 0.85 | 1.23 | 1.03 | 14.4 | 3 | 52.8 | 16.8 | 33 | 2.33 | 1.71 | 2.47 | 1.16 | CCOc1nn(CCO)c2c1/C=C/c1n[nH]c3c(C)nc(cc13)-c1cnn(C)c1O[C@@H](C)CN(CC)C2 [Ex. 28, 2-[(10S,17E)-16-ethoxy-12-ethyl-8,10,20-trimethyl-2,8,10,11,12,13-hexahydro-14H-5,3-(azenometheno)tripyrazolo[3,4-f:3′,4′-j:4″,3″-n][1,4]oxazacyclopentadecin-14-yl]ethan-1-ol] |
| 1.11 | 1.84 | 0.99 | 1.24 | 1.54 | 1.51 | 1.13 | 3.09 | 3.01 | 19.1 | 4.66 | 28.6 | 0.68 | 1.57 | 0.41 | 1.7 | CCOc1nn(CCO)c2c1/C=C/c1n[nH]c3cnc(cc13)-c1c(C)nn(C)c1O[C@H](C)CN(C(C)C)C2 [Ex. 1, 2-[(10R,17E)-16-ethoxy-6,8,10-trimethyl-12-(propan-2-yl)-2,8,10,11,12,13-hexahydro-14H-5,3-(azenometheno)tripyrazolo[3,4-f:3′,4′-j:4″,3″-n][1,4]oxazacyclopentadecin-14-yl]ethan-1-ol] |
| 1.02 | 0.6 | 0.47 | 0.36 | 1.01 | 0.29 | 0.31 | 3.42 | 5.84 | 43.1 | 2.91 | 10 | 0.41 | 2.69 | 0.43 | 3.77 | CCN1Cc2c(c(OCC#N)nn2CCO)/C=C/c2n[nH]c3cnc(cc23)-c2c(C)nn(C)c2O[C@@H](C)C1 [Ex. 23, {[(10S,17E)-12-ethyl-14-(2-hydroxyethyl)-6,8,10-trimethyl-2,10,11,12,13,14-hexahydro-8H-5,3-(azenometheno)tripyrazolo[3,4-f:3′,4′-j:4″,3″-n][1,4]oxazacyclopentadecin-16-yl]oxy}acetonitrile] |
